Structures are written as SMILES.

For assay [1], the system named is TNFα production in RAW 264.7 macrophage cell line. Briefly: Mouse TNF alpha quantification assay (LPS-stimulated macrophages, ELISA). In kind it is cell-based. To be noted: RAW264.7, RAW 264.7 murine leukemia virus transformed macrophage cell lines, LPS stimulation, read-out: TNF-α % Inhibition at 30 μM. On the technique in general: In an ELISA, binding on a coated surface is turned into a signal by an enzyme label.

The subject of assay [2] is IL6 production in RAW 264.7 macrophage cell line. The experiment in a line: Mouse IL6 quantification assay (LPS-stimulated macrophages, ELISA). Type of assay: cell-based. As to conditions: RAW264.7, RAW 264.7 murine leukemia virus transformed macrophage cell lines, LPS stimulation, read-out: IL-6 % Inhibition at 30 μM.

By inhibition is commonly meant the drop in the measured response relative to a control, in per cent. Consider `O=C(c1csc2c(O)nc(-c3ccccn3)nc12)N1CCN(c2ccncc2)CC1` [drawing 2108], for which the inhibition at 30 µM is 0% in assay [1] and 1 to 25% in assay [2].
On to `COc1nc(-c2ccccn2)nc(Oc2cccc(C(F)(F)F)c2)c1OC` [drawing 2379], for which the inhibition at 30 µM in assay [1] and in assay [2] was 1 to 25% each time.
Consider `O=C(CCCc1cccnc1)N1CCCc2c(O)nc(-c3ccccn3)nc21` [drawing 2088], for which the inhibition at 30 µM was in the range of 1 to 25% in assay [1] and 76 to 100% in assay [2].
`COCCNc1nc(-c2cccc(N)n2)nc2sc(-c3ccccc3)c(-c3ccccc3)c12` [drawing 2418]: the inhibition at 30 µM in assay [1] and in assay [2] was 26 to 50% each time.
With `Cn1ccnc1-c1nc(O)c2scc(-c3ccccc3Cl)c2n1` [drawing 2442], the inhibition at 30 µM in assay [1] was in the range of 1 to 25%; in assay [2], 51 to 75%.
The like results for `COc1ccnc(-c2nc(O)c3c(Br)csc3n2)c1` [drawing 2172] were, in that order, 26 to 50% and 76 to 100%.
The like results for `Cc1cncc(-c2csc3c(O)nc(-c4ccccn4)nc23)c1` [drawing 2305] were, in that order, 1 to 25% and 76 to 100%.
On to `COc1ccc2c(c1)CCC2C(=O)Nc1ccnc(-c2ccccn2)n1` (stereo not drawn) [drawing 2207], for which the inhibition at 30 µM in assay [1] is 0%; in assay [2] it was 26 to 50%.
Consider `COc1cc2c(cc1OC)CCN(C(=O)c1csc3c(O)nc(N)nc13)CC2` [drawing 2099], for which the inhibition at 30 µM in assay [1] and in assay [2] was 1 to 25% throughout.
On to `O=C(Nc1nnc(-c2ccccn2)[nH]1)C1CC1c1ccc(F)cc1` (stereo not drawn) [drawing 1974], for which the inhibition at 30 µM in assay [1] and in assay [2] was 1 to 25% in each case.
Regarding `CCN(CC)C(=O)CN1CCN(c2nc(-c3ccccn3)nc3scc(-c4ccccc4)c23)CC1` [drawing 2150], the values for the inhibition at 30 µM in assay [1] and in assay [2] were 51 to 75% and 76 to 100%, respectively.
Take `O=C(COCc1ccncc1)Nc1nc(-c2ccccn2)nc2sccc12` [drawing 2221]: the inhibition at 30 µM in assay [1] lay in the range of 1 to 25%; in assay [2] it was 76 to 100%.
With `Cn1cc(C2CC2C(=O)Nc2nnc(-c3ccccn3)[nH]2)cn1` (stereo not drawn) [drawing 1932], the figures for the inhibition at 30 µM in assay [1] and in assay [2] were 1 to 25% and 0%, respectively.
On the same counts, the results for `O=C(c1cc2nc(-c3ccccn3)nc(O)c2s1)N1CCN(c2ccccc2)CC1` [drawing 2234] are 0% and 26 to 50%.
The like results for `Nc1nc(O)c2scc(-c3ccccc3)c2n1` [drawing 2118] were, in that order, 0% and 1 to 25%.
In the case of `Nc1nc(O)c2scc(Br)c2n1` [drawing 2089], the inhibition at 30 µM in assay [1] and in assay [2] was 1 to 25% in each case.
As for `Cc1nn(C(C)C)cc1-c1csc2c(O)nc(-c3ccccn3)nc12` [drawing 2328], the inhibition at 30 µM in assay [1] was in the range of 26 to 50%; in assay [2], 76 to 100%.
As to `O=C(c1csc2c(O)nc(-c3ccccn3)nc12)N1CCN(Cc2cccc(O)c2)CC1` [drawing 2169], the inhibition at 30 µM in assay [1] was 1 to 25%; in assay [2], 26 to 50%.
On the same counts, the results for `COc1ccc(-c2cc3nc(-c4ccccn4)nc(O)c3s2)cc1` [drawing 2390] are 1 to 25% and 0%.
Regarding `CCOc1cc(S(=O)(=O)N(Cc2ccccc2)Cc2ccccc2)c(OCC)cc1C` [drawing 2059], the inhibition at 30 µM in assay [1] and in assay [2] was 1 to 25% in each case.
Consider `O=C(COCc1ccnc(O)c1)Nc1nc(-c2ccccn2)nc2sccc12` [drawing 2250], for which the inhibition at 30 µM in assay [1] is 0%; in assay [2], 26 to 50%.
As to `COc1cccc(CC2CN(C(=O)c3csc4c(O)nc(-c5ccccn5)nc34)CCN2)c1` (stereo not drawn) [drawing 2223], the inhibition at 30 µM in assay [1] and in assay [2] was 1 to 25% throughout.
In the case of `CCOC(=O)NC1CCN(C(=O)c2csc3c(O)nc(N)nc23)CC1` [drawing 2095], the inhibition at 30 µM in assay [1] is 1 to 25%; in assay [2], 0%.
The like results for `Oc1nc(-c2ccccn2)nc2c(-c3ccccc3Cl)csc12` [drawing 2121] were, in that order, 76 to 100% and 76 to 100%.
On to `CC(=O)N1CCN(c2nc(-c3ccccn3)nc3scc(-c4ccccc4)c23)CC1` [drawing 2162], for which the inhibition at 30 µM in assay [1] and in assay [2] was 26 to 50% in each case.
Regarding `COC(=O)c1cc(NCc2nc(CC(C)C)no2)ccc1Cl` [drawing 2047], the inhibition at 30 µM in assay [1] fell in the range of 1 to 25%; in assay [2], 26 to 50%.
Consider `COc1ccc(N2CCN(C(=O)c3csc4c(O)nc(-c5ccccn5)nc34)CC2)cc1O` [drawing 2213], for which the results for the inhibition at 30 µM in assay [1] and in assay [2] were 0% and 26 to 50%, respectively.
Take `COc1cccc(CC(=O)Nc2nnc(-c3ccccn3)[nH]2)c1` [drawing 1933]: the inhibition at 30 µM in assay [1] lay in the range of 1 to 25%; in assay [2], 26 to 50%.
Consider `c1ccc(-c2csc3nc(-c4ccccn4)nc(NN4CCOCC4)c23)cc1` [drawing 2159], for which the inhibition at 30 µM was in the range of 26 to 50% in assay [1] and 51 to 75% in assay [2].
`Oc1nc(-c2ccccn2)nc2c(-c3ccc(Cl)c(Cl)c3)csc12` [drawing 2301]: the inhibition at 30 µM in assay [1] is 0%; in assay [2] it was 26 to 50%.
Turning to `Cc1sc2nc(-c3ccccn3)nc(NCCc3nccn3C)c2c1-c1ccccc1` [drawing 2134], the values for the inhibition at 30 µM in assay [1] and in assay [2] were 0% and 1 to 25%, respectively.
With `Cc1sc2c(O)nc(-c3ccccn3)nc2c1-c1cccnc1` [drawing 2306], the inhibition at 30 µM in assay [1] is 0%; in assay [2] it was 51 to 75%.
For `Oc1nc(-c2ccccn2)nc2c(-c3cc(F)ccc3OC(F)F)csc12` [drawing 2252], the inhibition at 30 µM in assay [1] is 26 to 50%; in assay [2], 76 to 100%.
`COc1ccc(CCC(=O)N2CCCc3c(O)nc(-c4ccccn4)nc32)cc1` [drawing 2073]: the inhibition at 30 µM in assay [1] was in the range of 26 to 50%; in assay [2], 76 to 100%.
Consider `CSc1nc(C2CC2)cc(C(=O)NCCc2ccc(S(=O)(=O)NC(=O)c3cc(C4CC4)nc(SC)c3C#N)cc2)c1C#N` [drawing 2067], for which the inhibition at 30 µM in assay [1] was in the range of 26 to 50%; in assay [2] it was 1 to 25%.
Turning to `Oc1nc(-c2ccccn2)nc2c1c(-c1ccccc1)nn2-c1ccccn1` [drawing 2366], the inhibition at 30 µM in assay [1] fell in the range of 1 to 25%; in assay [2], 51 to 75%.
For the compound `O=C(c1csc2c(O)nc(-c3cccnc3)nc12)N1CCNC(Cc2cccc(F)c2)C1` (stereo not drawn), the inhibition at 30 µM in assay [1] was 1 to 25%; in assay [2] it was 26 to 50%.
For `O=C(c1csc2c(O)nc(-c3ccccn3)nc12)N1CCN(Cc2ccc(O)cc2)CC1` [drawing 2189], the inhibition at 30 µM in assay [1] and in assay [2] was 1 to 25% in each case.
Take `CN(C)Cc1ccc(F)c(-c2csc3c(O)nc(-c4ccccn4)nc23)c1` [drawing 2293]: the inhibition at 30 µM in assay [1] fell in the range of 51 to 75%; in assay [2], 76 to 100%.
In the case of `Cc1sc2c(N)nc(-c3ccccn3)nc2c1Br` [drawing 2285], the inhibition at 30 µM in assay [1] is 0%; in assay [2], 1 to 25%.
As for `O=C(CC1CCCC1)NCC(=O)Nc1nnc(-c2ccccn2)[nH]1` [drawing 1962], the inhibition at 30 µM in assay [1] and in assay [2] was 1 to 25% throughout.
For the compound `Nc1cccc(-c2csc3c(O)nc(-c4ccccn4)nc23)n1` [drawing 2341], the inhibition at 30 µM in assay [1] was 26 to 50%; in assay [2], 76 to 100%.
On to `O=C(Cc1ccc2c(c1)OCO2)Nc1nnc(-c2ccccn2)[nH]1` [drawing 1996], for which the inhibition at 30 µM in assay [1] was 1 to 25%; in assay [2] it was 26 to 50%.
As for `O=C(Cc1cccs1)Nc1nnc(-c2ccccn2)[nH]1` [drawing 1953], the inhibition at 30 µM in assay [1] and in assay [2] was 1 to 25% each time.
In the case of `Nc1nc(-c2ccccn2)nc2c(-c3ccccc3)csc12` [drawing 2251], the inhibition at 30 µM in assay [1] was 51 to 75%; in assay [2], 76 to 100%.
The like results for `COCC1CCN(C(=O)c2csc3c(O)nc(-c4ccccn4)nc23)CC1` [drawing 2102] were, in that order, 1 to 25% and 76 to 100%.
On to `N#CCc1ccc(OCC(=O)Nc2nnc(-c3ccccn3)[nH]2)cc1` [drawing 1998], for which the inhibition at 30 µM in assay [1] is 1 to 25%; in assay [2], 0%.
Take `Cc1nc(-c2ccccn2)nc(O)c1CCC(=O)NC1CCc2ccccc21` (stereo not drawn) [drawing 2033]: the inhibition at 30 µM in assay [1] and in assay [2] was 26 to 50% in each case.
Turning to `CC(C)Oc1cnc(-c2ccccn2)nc1O` [drawing 2319], the inhibition at 30 µM in assay [1] was in the range of 1 to 25%; in assay [2], 76 to 100%.
For the compound `O=C(COc1ccccc1)Nc1nnc(-c2ccccn2)[nH]1` [drawing 1993], the inhibition at 30 µM was 0% in assay [1] and 1 to 25% in assay [2].
The like results for `Cc1ccc(CC(=O)Nc2nnc(-c3ccccn3)[nH]2)cc1` [drawing 1943] were, in that order, 0% and 1 to 25%.
The like results for `O=c1nc(-c2ccccn2)[nH]c2scc(-c3ccccc3Cl)c12` [drawing 2025] were, in that order, 1 to 25% and 0%.
In the case of `O=C(Nc1nnc(-c2ccccn2)[nH]1)c1ccc2ccccc2n1` [drawing 1942], the figures for the inhibition at 30 µM in assay [1] and in assay [2] were 0% and 1 to 25%, respectively.
On the same counts, the results for `COc1cnc(-c2cn(C)cn2)nc1O` [drawing 2339] are 0% and 26 to 50%.
On to `O=C(Nc1nc(-c2ccccn2)cs1)c1ccncc1` [drawing 2019], for which the inhibition at 30 µM is 1 to 25% in assay [1] and 26 to 50% in assay [2].
The like results for `O=C(c1csc2c(O)nc(-c3ccccn3)nc12)N1CCN(Cc2ccc(O)c(Cl)c2)CC1` [drawing 2190] were, in that order, 1 to 25% and 76 to 100%.
Consider `Cn1nnc2ccc(-c3csc4c(O)nc(-c5ccccn5)nc34)cc21` [drawing 2253], for which the inhibition at 30 µM in assay [1] lay in the range of 1 to 25%; in assay [2], 76 to 100%.

For the origin of these results see patent US10940139B2, “Compounds that interact with the Ras superfamily for the treatment of cancers, inflammatory diseases, rasopathies, and fibrotic disease” (Shy Therapeutics LLC, priority 2017, dated 2021).
